# pIC50: −log10 of the molar value. Like-named read-outs stand apart in the source and are kept apart here.
# Key:
# [1] = test system: breast carcinoma cells; conditions: Pizer et al.; cited from earlier work
# [2] = molecular target: T1, malonyl-CoA decarboxylase prepared from rat heart (Rattus norvegicus, UniProt Q920F5); assay: In vitro MCD inhibitory assay (spectrophotometric, 96 well); assay type: biochemical
# T1 construct: from tissue; host or cells: rat heart
# T1 sequence (Q920F5 39-492): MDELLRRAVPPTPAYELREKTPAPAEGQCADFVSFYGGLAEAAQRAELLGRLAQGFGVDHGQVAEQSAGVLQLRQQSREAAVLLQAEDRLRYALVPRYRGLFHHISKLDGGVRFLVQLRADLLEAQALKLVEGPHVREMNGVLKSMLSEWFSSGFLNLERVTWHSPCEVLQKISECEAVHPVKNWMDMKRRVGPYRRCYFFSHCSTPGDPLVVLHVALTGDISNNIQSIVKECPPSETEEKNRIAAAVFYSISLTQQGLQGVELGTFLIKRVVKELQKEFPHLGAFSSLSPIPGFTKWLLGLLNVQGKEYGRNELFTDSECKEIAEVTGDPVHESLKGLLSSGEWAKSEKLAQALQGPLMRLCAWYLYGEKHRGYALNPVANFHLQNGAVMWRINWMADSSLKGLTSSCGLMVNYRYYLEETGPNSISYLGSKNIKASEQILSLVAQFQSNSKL
# Description: The following reagents are added into a 96 well titer plate: Tris-HCl buffer, 20 μL, DTE, 10 μL; I-malate, 20 μL; NAD, 10 μL; NADH, 25 μL; water, 80 μL; malic dehydrogenase, 5 μL. The contents are mixed and incubated for 2 min followed by the addition of 5 μL of citrate synthase.
# [3] = molecular target: T2, carnitine palmitoyltransferase-I (CPT-I) muscle (M) isoform (Homo sapiens, UniProt Q92523); conditions: read-out: IC50 of malonyl-CoA inhibition of CPT-I; cited from earlier work
# T2 sequence (Q92523 1-772): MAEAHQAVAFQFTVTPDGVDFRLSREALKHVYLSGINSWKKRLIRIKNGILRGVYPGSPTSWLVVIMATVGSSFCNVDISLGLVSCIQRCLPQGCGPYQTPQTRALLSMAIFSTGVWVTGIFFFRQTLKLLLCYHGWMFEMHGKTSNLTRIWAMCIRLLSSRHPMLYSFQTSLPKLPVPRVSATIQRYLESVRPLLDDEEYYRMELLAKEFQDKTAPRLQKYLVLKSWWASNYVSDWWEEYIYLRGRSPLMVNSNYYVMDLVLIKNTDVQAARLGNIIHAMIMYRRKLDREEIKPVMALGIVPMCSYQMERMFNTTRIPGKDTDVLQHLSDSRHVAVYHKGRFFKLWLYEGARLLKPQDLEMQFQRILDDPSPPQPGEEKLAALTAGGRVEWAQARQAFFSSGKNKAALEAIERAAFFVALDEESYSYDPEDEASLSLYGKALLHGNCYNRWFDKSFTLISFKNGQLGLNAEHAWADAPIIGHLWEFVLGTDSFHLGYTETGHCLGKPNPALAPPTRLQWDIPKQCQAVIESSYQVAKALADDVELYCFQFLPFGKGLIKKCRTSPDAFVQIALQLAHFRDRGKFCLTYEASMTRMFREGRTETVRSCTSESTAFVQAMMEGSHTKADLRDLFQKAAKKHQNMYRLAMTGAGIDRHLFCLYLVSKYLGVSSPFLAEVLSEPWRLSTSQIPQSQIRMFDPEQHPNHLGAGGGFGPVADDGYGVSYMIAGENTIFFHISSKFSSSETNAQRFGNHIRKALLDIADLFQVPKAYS
# [4] = MCD from rat heart, concentration causing 50% inhibition of MCD activity, read-out: IC50 of the MCD inhibitors
SMILES,"pIC50 [2, 4]",also measured
"CCCCCCCCCCCCCCOc1ccc(C(=O)O)o1 [TOFA, 5-(tetradecyloxy)-2-furoic acid]",–,malonyl-CoA level [1]: 60 % of the control
CCCCNC(=O)c1c(-c2ccccc2)nc(-c2ccc(C(O)(C(F)(F)F)C(F)(F)F)cc2)n1C(C)C [Example 23-11],7.36,–
CCCCN(C(=N)N(CC)CC)c1ccc(C(O)(C(F)(F)F)C(F)(F)F)cc1.Cl [Example 4],–,melting point: 217.1 to 219.2 °C (dec.)
"CC(C)(C)OC(=O)CCNC(=O)C1CC(c2ccc(C(O)(C(F)(F)F)C(F)(F)F)cc2)=NO1 (stereo not drawn) [Example 12, 1,1-dimethylethyl N-[(3-{4-[2,2,2-trifluoro-1-hydroxy-1-(trifluoromethyl)ethyl]phenyl}-4,5-dihydroisoxazol-5-yl)carbonyl]-beta-alaninate]",6.29,–
CCCCN(C(=S)N(CC)CC)c1ccc(C(O)(C(F)(F)F)C(F)(F)F)cc1 [Example 5-108],6.83,–
CCCC(O)(CCC)c1ccc(C(O)(C(F)(F)F)C(F)(F)F)cc1 [Example 15],6.90,–
CC(C)(COP(=O)(O)OP(=O)(O)OC[C@H]1O[C@@H](n2cnc3c(N)ncnc32)[C@H](O)[C@@H]1OP(=O)(O)O)[C@@H](O)C(=O)NCCC(=O)NCCSC(=O)CC(=O)O [Malonyl-CoA],–,pIC50 [3]: 7.52
"CCCCN(C(=N)N(CC)CC)c1ccc(C(O)(C(F)(F)F)C(F)(F)F)cc1.Cl [Example 4, butyl {4-[2,2,2-trifluoro-1-hydroxy-1-(trifluoromethyl)ethyl]phenyl}amino)(diethylamino)methaniminium chloride]",6.79,–
COC(=O)CCCCN(C(=S)N1CCOCC1)c1ccc(C(O)(C(F)(F)F)C(F)(F)F)cc1 [Example 5-48],7.35,–
"CCCCNC(=O)c1c(-c2ccccc2)nc(-c2ccc(C(O)(C(F)(F)F)C(F)(F)F)cc2)n1CCC [Example 22, N-butyl-4-phenyl-1-propyl-2-{4-[2,2,2-trifluoro-1-hydroxy-1-(trifluoromethyl)ethyl]phenyl}-1H-imidazole-5-carboxamide]",6.45,–
"CCOP(=O)(OCC)N(CC)c1ccc(C(O)(C(F)(F)F)C(F)(F)F)cc1 [Example 28, diethyl ethyl{4-[2,2,2-trifluoro-1-hydroxyl-1-(trifluoromethyl)ethyl]phenyl}amidophosphate]",–,pIC50 [2]: 7.05
"OC(c1ccc(N(Cc2ccc(C(F)(F)F)cc2)C(=S)N2CCOCC2)cc1)(C(F)(F)F)C(F)(F)F [Example 1, morpholine-4-carbothioic acid [4-(2,2,2-trifluoro-1-hydroxy-1-trifluoromethyl-ethyl)-phenyl]-(4-trifluoromethyl-benzyl)-amide]",6.91,–
"N#CCCCCN(C(=S)N1CCOCC1)c1ccc(C(O)(C(F)(F)F)C(F)(F)F)cc1 [Example 2, N-(4-cyanobutyl)-N-{4-[2,2,2-trifluoro-1-hydroxy-1-(trifluoromethyl)ethyl]phenyl}morpholine-4-carbothioamide]",7.38,–

# From US7279477B2 (Chugai Seiyaku Kabushiki Kaisha, priority 2001, dated 2007)
